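The compound was tested at five concentrations on cells cultured in 96-well plates, with a 48-hour exposure period. Abbreviation: GI50, concentration required for 50% inhibition of growth.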 Active and inactive are the calls of the source. No stated cut-off is given here; in the data, active = GI50 up to about 1.1 µM and inactive = higher.
Legend:
Assay in all cases: NCI tumour cell line growth inhibition, 48 h
SNB-78 = test system: SNB-78
LXFL 529 = test system: LXFL 529
KM-20L2 = test system: KM-20L2
M19-MEL = test system: M19-MEL
T47D = test system: T47D
786-0 = test system: 786-0
HOP-18 = test system: HOP-18
DMS-114 = test system: DMS-114
RXF 631 = test system: RXF 631

COc1cccc(NC(=O)C(=O)C(C(=O)c2ccccc2F)C2OC(=O)c3ccccc32)c1 (stereo unspecified)
GI50 (SNB-78): 15.5 µM (inactive)
GI50 (LXFL 529): 33.6 µM (inactive)
GI50 (KM-20L2): 33.3 µM (inactive)
GI50 (M19-MEL): 22.9 µM (inactive)

O=C1NC(O)c2cc3ccccc3cc2O1 (stereo unspecified)
GI50 (T47D): 25.5 µM (inactive)
GI50 (786-0): > 100 µM (inactive)

COc1ccc2oc3c(ccc[n+]3C)c(=O)c2c1
GI50 (T47D): > 100 µM (inactive)

COc1c2ccoc2c(S(=O)(=O)Nc2ccc(Cl)cc2)c2oc(C)cc(=O)c12
GI50 (HOP-18): > 54.8 µM (inactive)
GI50 (SNB-78): > 100 µM (inactive)
GI50 (KM-20L2): > 100 µM (inactive)
GI50 (DMS-114): > 68.2 µM (inactive)
GI50 (M19-MEL): > 100 µM (inactive)

CCN(CC)CCCNC(=O)c1ccccc1Nc1c(Cl)cccc1Cl
GI50 (SNB-78): 15 µM (inactive)
GI50 (LXFL 529): 14.6 µM (inactive)
GI50 (KM-20L2): 2.56 µM (inactive)
GI50 (DMS-114): 12.2 µM (inactive)
GI50 (M19-MEL): 3.28 µM (inactive)

O=C(O)CC/C(=N\Nc1nsc2ccccc12)c1ccccc1
GI50 (HOP-18): > 100 µM (inactive)
GI50 (SNB-78): 47.8 µM (inactive)
GI50 (LXFL 529): 42.5 µM (inactive)
GI50 (KM-20L2): 78.7 µM (inactive)
GI50 (DMS-114): 25.5 µM (inactive)
GI50 (M19-MEL): 72.3 µM (inactive)

Cc1ccc(NC(=O)CC(=O)n2nc(-c3ccccc3)c(/N=N/c3ccccc3C(=O)O)c2-c2ccccc2)cc1
GI50 (LXFL 529): > 100 µM (inactive)
GI50 (RXF 631): > 100 µM (inactive)
GI50 (KM-20L2): 84.7 µM (inactive)
GI50 (M19-MEL): > 100 µM (inactive)

c1ccc(C2=NCCN2)c(C2=NCCN2)c1
GI50 (T47D): > 100 µM (inactive)
GI50 (786-0): > 100 µM (inactive)

COc1ccc2[nH]c(C(=O)N3CC(CCl)c4c3cc(N)c3ccccc43)cc2c1 (stereo unspecified)
GI50 (T47D): 0.0101 µM (active)

COc1nc(Cl)nc(N[C@H](C)c2c3ccccc3cc3ccccc23)n1
GI50 (T47D): 1.99 µM (inactive)

O=C(O)CCCCCCC[C@@H]1S[C@H]1CCCCCCO
GI50 (HOP-18): > 100 µM (inactive)
GI50 (SNB-78): > 100 µM (inactive)
GI50 (KM-20L2): > 100 µM (inactive)
GI50 (DMS-114): > 100 µM (inactive)
GI50 (M19-MEL): > 100 µM (inactive)

COc1ccc2c(=O)c(O)c(-c3ccc(OC)c(OC)c3)oc2c1
GI50 (T47D): > 100 µM (inactive)

CCOC(=O)CCn1[nH]c(=O)c(Cl)c(Cl)c1=O
GI50 (HOP-18): > 100 µM (inactive)
GI50 (SNB-78): > 100 µM (inactive)
GI50 (LXFL 529): > 100 µM (inactive)
GI50 (RXF 631): > 100 µM (inactive)
GI50 (786-0): > 100 µM (inactive)
GI50 (KM-20L2): > 100 µM (inactive)
GI50 (DMS-114): > 100 µM (inactive)
GI50 (M19-MEL): > 100 µM (inactive)

Nc1nc(N)nc(-c2ccccc2NS(=O)(=O)c2ccc([N+](=O)[O-])cc2)n1
GI50 (HOP-18): > 100 µM (inactive)
GI50 (SNB-78): > 74.1 µM (inactive)
GI50 (KM-20L2): > 100 µM (inactive)
GI50 (DMS-114): 25.8 µM (inactive)
GI50 (M19-MEL): 34.9 µM (inactive)

O=C1CN2Cc3cc(N4CCOCC4)ccc3N=C2N1
GI50 (T47D): > 100 µM (inactive)

O=c1cnn(C/C=C/CP(=O)(O)O)c(=O)[nH]1
GI50 (T47D): > 100 µM (inactive)

COc1cc(CN(C)N2C(=O)c3cccc4cc([N+](=O)[O-])cc(c34)C2=O)cc(OC)c1OC
GI50 (T47D): > 100 µM (inactive)

O=C1CCC(c2nc3cc(Cl)ccc3o2)C(=O)N1 (stereo unspecified)
GI50 (HOP-18): > 100 µM (inactive)
GI50 (SNB-78): > 100 µM (inactive)
GI50 (LXFL 529): > 100 µM (inactive)
GI50 (RXF 631): > 100 µM (inactive)
GI50 (786-0): > 100 µM (inactive)
GI50 (KM-20L2): > 100 µM (inactive)
GI50 (DMS-114): > 100 µM (inactive)
GI50 (M19-MEL): > 100 µM (inactive)

CN(C)CCNC(=O)c1cccc2[nH]c(-c3ccncc3)nc12
GI50 (T47D): 12.7 µM (inactive)
GI50 (786-0): 2.04 µM (inactive)

CC(C)CC/N=c1/cc2n(-c3ccc(Cl)cc3)c3ccccc3nc-2cc1Nc1ccc(Cl)cc1
GI50 (HOP-18): 7.05 µM (inactive)
GI50 (SNB-78): 15.5 µM (inactive)
GI50 (KM-20L2): 1.34 µM (inactive)
GI50 (DMS-114): 1.94 µM (inactive)
GI50 (M19-MEL): 6.89 µM (inactive)

CCOC(=O)C(C)OC(=O)c1ccc(C)cc1 (stereo unspecified)
GI50 (HOP-18): > 100 µM (inactive)
GI50 (SNB-78): > 100 µM (inactive)
GI50 (LXFL 529): > 100 µM (inactive)
GI50 (RXF 631): > 100 µM (inactive)
GI50 (KM-20L2): > 100 µM (inactive)
GI50 (DMS-114): > 100 µM (inactive)
GI50 (M19-MEL): > 100 µM (inactive)

COC1=CC(=O)c2c(c(COC(C)=O)cn2C)C1=O
GI50 (T47D): 0.736 µM (active)
